Data from patent publication US10532105B2, “Formulations for improving the efficacy of hydrophobic drugs” (Peptinovo Biopharma, LLC, priority 2015, dated 2020).
Non-standard residues stand in square brackets, D forms with d. No end group written: not given here. Aib = CC(C)(N)C(=O)O

How the values were obtained:
BHK(SR-BI) cells = assay: DiI uptake from PALM or HDL by BHK(SR-BI) cells, SR-BI un-induced or induced; assay type: cell-based, hamster; conditions: for Increase Over Un-induced: DiI uptake, induced vs un-induced cells; for Induced DiI Uptake: SR-BI induced (10 nM mifepristone) BHK(SR-BI) cells; for Induced DiI Uptake / Un-induced DiI Uptake: 4 hours, mean ± SEM, n = 4; for Un-induced DiI Uptake: un-induced BHK(SR-BI) cells, relative to protein (HDL) or peptide (PALM) concentration
Procedure: SR-BI interaction studies are done with BHK(SR-BI) cells obtained from the NIH. The cells were stably transfected with an inducible human SR-BI gene by means of the GeneSwitch™ System (Invitrogen). The cells were plated (96-well plate) (8000 cells/well) in growth medium (Dulbeco's modified Eagle medium containing 10% fetal bovine serum) containing 200 ug/ml each of zeocin and hygromycin. After 24 hours incubation, the growth medium was removed and replaced with 0.2% bovine serum albumin in Dulbeco's modified Eagle medium. The medium of cells to be induced for SR-BI expression also contained 10 nM mifepristone, added from a DMSO stock solution. DMSO alone was added to the medium of uninduced cells. The induction medium was removed after 24 hours and replaced with medium containing DiI-labeled PALM (32 μg peptide/ml) or DiI-labeled HDL (19 μg protein/ml) (Kalen Biomedical, Montgomery Village, Md.). The test media were prepared by diluting an aliquot of Di-I-labeled PALM (Example 5) or the DiI-labeled HDL in 0.2% bovine serum albumin in Dulbeco's modified Eagle medium. The solutions were passed through 0.2 μm pore size, polyethersulfone, sterilization filters before use. The cells were incubated for 4 hours. Next, the cells were washed 3 times with 0.1% albumin in Dulbeco's phosphate buffered saline (with calcium and magnesium). The last wash was replaced with 200 ul/well of t-butanol/water (95%/5%). The covered plate was left to stand at ROOM TEMPERATURE for 30 min with occasional shaking. The fluorescence in each well was detected at 520 nm excitation and 580 nm emission with a 550 nm cutoff filter on a Molecular Dynamics Gemini fluorescence plate reader (FIG. 9).

[1] = Stability of peptide/phospholipid complexes by visual inspection; assay type: physicochemical; conditions: SM, PC/SM 70/30
Procedure: Separate stock solutions of peptide and phospholipids were prepared in a solvent mixture composed of 80% tert-butyl alcohol (TBA) and 20% water to obtain separate solutions of 10 mM peptide, 20 mM 1,2-dioleoyl-sn-glycero-3-phosphocholine (DOPC) or 20 mM 1-palmitoyl-2-oleoyl-phosphatidylcholine (POPC) and 20 mM egg SM. Aliquots of stock solution were combined to obtain a final solution containing 10 mole equivalents of peptide, 42 mole equivalents of phosphatidylcholine and 18 mole equivalents of SM. The solutions were combined in a 1.5 ml glass vial, frozen (−70° C.), and lyophilized at −5 to −10° C. overnight. The resultant lyophilized cakes were rehydrated by addition of Dulbeco's phosphate buffered saline followed by gentle swirling of the contents. Formation of PALM was completed by incubating the PALM solution at 50° C. for 10 minutes. […] The qualities of the PALM preparations were evident in their appearance. A visually clear preparation indicated any nanoparticles that had formed were less than approximately 20 nm diameter.

## DVFQKL{AIB}ELFNQL{AIB}EKWKQV (DVFQKL[Aib]ELFNQL[Aib]EKWKQV) [SEQ ID NO: 35]
BHK(SR-BI) cells
  Increase Over Un-induced: 264%
  Induced DiI Uptake: 1.26 ± 0.06 pmol/µg/mL
  Un-induced DiI Uptake: 0.35 ± 0.01 pmol/µg/mL

## DVFQ{AIB}LKELLNQLLEKFKQV (DVFQ[Aib]LKELLNQLLEKFKQV) [SEQ ID NO: 5]
BHK(SR-BI) cells
  Increase Over Un-induced: 73%
  Induced DiI Uptake: 0.93 ± 0.03 pmol/µg/mL
  Un-induced DiI Uptake: 0.54 ± 0.03 pmol/µg/mL

## DV{AIB}QKLFELFNQLLEKWKQV (DV[Aib]QKLFELFNQLLEKWKQV) [SEQ ID NO: 27]
[1]; DOPC, C16PTX/PL mole ratio 0
  Stability by visual inspection (appearance): Turbid
[1]; POPC, C16PTX/PL mole ratio 0
  Stability by visual inspection (appearance): Clear
[1]; POPC, C16PTX/PL mole ratio 0.1
  Stability by visual inspection (appearance): Turbid
BHK(SR-BI) cells
  Increase Over Un-induced: 90%
  Induced DiI Uptake: 0.66 ± 0.02 pmol/µg/mL
  Un-induced DiI Uptake: 0.34 ± 0.01 pmol/µg/mL

## DVFQKL{AIB}ELFNQLLEKWKQV (DVFQKL[Aib]ELFNQLLEKWKQV) [SEQ ID NO: 25]
[1]; DOPC, C16PTX/PL mole ratio 0
  Stability by visual inspection (appearance): Clear
[1]; DOPC, C16PTX/PL mole ratio 0.1
  Stability by visual inspection (appearance): Clear
[1]; POPC, C16PTX/PL mole ratio 0
  Stability by visual inspection (appearance): Clear
[1]; POPC, C16PTX/PL mole ratio 0.1
  Stability by visual inspection (appearance): Clear
BHK(SR-BI) cells
  Increase Over Un-induced: 245%
  Induced DiI Uptake: 0.83 ± 0.02 pmol/µg/mL
  Un-induced DiI Uptake: 0.24 ± 0.01 pmol/µg/mL

## DVFQKLVELFNQLLEKWKQV [SEQ ID NO: 26]
[1]; POPC, C16PTX/PL mole ratio 0
  Stability by visual inspection (appearance): Clear
[1]; POPC, C16PTX/PL mole ratio 0.1
  Stability by visual inspection (appearance): Turbid
BHK(SR-BI) cells
  Increase Over Un-induced: 65%
  Induced DiI Uptake: 0.81 ± 0.04 pmol/µg/mL
  Un-induced DiI Uptake: 0.49 ± 0.04 pmol/µg/mL

## DVFQ{AIB}LKELFNQLLEKWKQV (DVFQ[Aib]LKELFNQLLEKWKQV) [SEQ ID NO: 3]
BHK(SR-BI) cells
  Increase Over Un-induced: 88%
  Induced DiI Uptake: 0.29 ± 0.03 pmol/µg/mL
  Un-induced DiI Uptake: 0.16 ± 0.01 pmol/µg/mL

## DV{AIB}QKFLELFNQLLEKWKQV (DV[Aib]QKFLELFNQLLEKWKQV) [SEQ ID NO: 32]
[1]; DOPC, C16PTX/PL mole ratio 0
  Stability by visual inspection (appearance): Turbid
[1]; DOPC, C16PTX/PL mole ratio 0.1
  Stability by visual inspection (appearance): Turbid
[1]; POPC, C16PTX/PL mole ratio 0
  Stability by visual inspection (appearance): Clear
[1]; POPC, C16PTX/PL mole ratio 0.1
  Stability by visual inspection (appearance): Turbid
BHK(SR-BI) cells
  Increase Over Un-induced: 221%
  Induced DiI Uptake: 0.90 ± 0.03 pmol/µg/mL
  Un-induced DiI Uptake: 0.28 ± 0.02 pmol/µg/mL
